Read-outs that look alike come from different tables or passages of the source.

For assay [1], the target named is T1, human CB2 (Homo sapiens, UniProt P34972). The note with it: cited from earlier work.
In assay [2] the target is T1, human CB2. Kind of assay: biochemical. Format: binding. Conditions: for CB2 Ki (μM, 95% CI) / CB2 pKi ± SEM / Ki: [3H]CP-55,940 displacement, CHO-K1 membranes. As to the method: The compounds selected for the in vitro binding assay were purchased via MolPort, SIA, Riga, Latvia (Supporting Information S2). Membrane preparations from CHO-K1 cells expressing the human CB2 (ChemiSCREEN Membrane Preparation Recombinant Human CB2 Cannabinoid Receptor. Merck, USA) were incubated in duplicate with 0.8 nM [^3H]CP-55,940 (specific activity: 101 Ci/mmole, PerkinElmer, USA) in a 50 mM Tris–HCl, pH = 7.4 buffer supplemented with 2.5 mM EDTA, 5 mM MgCl2, 0.5 mg/mL BSA and increasing concentrations of the compounds tested. Compounds were dissolved in 50% DMSO and added to the reaction mixture at 10 concentrations equally spaced on a log scale (10^–10–10^–4.5 M). The final DMSO concentration was 5%. […] The reaction mixture (500 μL) was incubated for 1.5 h at 30 °C. Before harvesting, Brandel Whatman GF/B Filter Paper was presoaked with 0.5% polyethylenimine buffer for 30 min and then washed with 2 mL of 50 mM Tris–HCl buffer (pH = 7.4) containing 0.5% BSA to minimize nonspecific binding. The reaction was terminated by depositing the samples onto the filter paper with the Brandel M–24 Cell Harvester. Samples were then rapidly washed three times with 2 mL of wash buffer (50 mM Tris–HCl pH 7.4, 2.5 mM EDTA, 5 mM MgCl2, 0.5 mg/mL BSA) to separate the bound radioligand from free. Filters were then air-dried for 1.5 h at 60 °C. After drying, filter discs were placed on a flexible 24-well plate and 500 μL of EcoScint-20 scintillant (PerkinElmer, USA) was added to each well. Plates were counted (2 min per well) in a Trilux MicroBeta counter (PerkinElmer, USA). Data were analyzed with GraphPad Prism 5.0 software.

The next assay has as its target T2, human CB1 receptors (Homo sapiens, UniProt P21554).
T2 construct: purchased Merck; host or cells: Chem-1
Kind of assay: CB1 radioligand displacement assay ([3H]CP-55,940). Format: binding. The note with it: for CB1 Ki (μM, 95% CI) / CB1 pKi ± SEM: [3H]CP-55,940 displacement, Chem-1 membranes. As to the method: Membrane preparations from Chem-1 cells expressing the human CB1 receptors (ChemiSCREEN CB1 Cannabinoid Receptor Membrane Preparation. Merck, USA) were incubated in duplicate with 1 nM [^3H]CP-55,940 (specific activity: 108.5 Ci/mmole, PerkinElmer, USA) in a 50 mM Tris–HCl, pH = 7.4 buffer supplemented with 1 mM CaCl2, 5 mM MgCl2, 0.2% BSA and increasing concentrations of the compounds tested. Compounds were dissolved in 50% DMSO and added to the reaction mixture at 10 concentrations equally spaced on a log scale (10^–10–10^–4.5 M). The final DMSO concentration was 5%. […] The reaction mixture (500 μL) was incubated for 1.5 h at 30 °C. Before harvesting, Brandel Whatman GF/B Filter Paper was presoaked with 0.5% polyethylenimine buffer for 30 min and then washed with 2 mL of 50 mM Tris–HCl buffer (pH = 7.4) containing 0.5% BSA to minimize nonspecific binding. The reaction was terminated by depositing the samples onto the filter paper with the Brandel M-24 Cell Harvester. Samples were then rapidly washed three times with 2 mL of wash buffer (50 mM Tris–HCl pH 7.4, 500 mM NaCl, and 5 mM MgCl2) to separate the bound radioligand from the free one. The rest of the procedure was the same as for CB2.

Assay [3] concerns the target T1, human CB2. Kind of assay: CB2 [35S]GTPγS assay. Format: biochemical. On the set-up: purchased PerkinElmer ES-111-M400UA; host or cells: CHO-K1. Conditions: compounds at 10 μM, 100 nM CP-55,940 as stimulating ligand. As to the method:
Ten micromolar concentrations of each compound were incubated in triplicate with membrane preparations from CHO-K1 cells expressing the human CB2 receptor (0.5 μg per well) (PerkinElmer, Cat. No. ES-111-M400UA) in an assay buffer containing 50 mM Tris–HCl, pH = 7.4, 0.2 mM EGTA, 3 mM MgCl2, 100 mM NaCl, 30 μM GDP and 1 mg/mL BSA) in the presence of 0.08 nM [^35S] guanosine 5′-[γ-thio]triphosphate ([^35S]GTPγS) (specific activity: 1250 Ci/mmole, PerkinElmer). Nonspecific binding was determined with 100 μM of unlabeled GTPγS. CP-55,940 (100 nM) was used as stimulating ligand. The final DMSO concentration in the assay was 5%. The reaction mixture was incubated for 60 min at 30 °C. Next, the samples were deposited under vacuum with the FilterMate Harvester (PerkinElmer, USA) onto Unifilter GF/B Plates (PerkinElmer, USA) presoaked with wash buffer (50 mM Tris–HCl, pH = 7.4). The samples were then rapidly washed with 2 mL of wash buffer. Filter plates were dried for 30 min at 50 °C and 40 μL of MicroScint PS (PerkinElmer, USA) scintillation fluid was added to each well. Radioactivity was counted in a Trilux MicroBeta^2 counter (PerkinElmer, USA). Data were analyzed with GraphPad Prism 5.0 software. Results were expressed as percent of basal [^35S]GTPγS binding in the presence of CP-55,940 from three separate experiments. Basal binding was set to 100%.

Where [4] appears, read: read-out: CB2 pKi ± SEM (converted).

T1 sequence (P34972 whole entry): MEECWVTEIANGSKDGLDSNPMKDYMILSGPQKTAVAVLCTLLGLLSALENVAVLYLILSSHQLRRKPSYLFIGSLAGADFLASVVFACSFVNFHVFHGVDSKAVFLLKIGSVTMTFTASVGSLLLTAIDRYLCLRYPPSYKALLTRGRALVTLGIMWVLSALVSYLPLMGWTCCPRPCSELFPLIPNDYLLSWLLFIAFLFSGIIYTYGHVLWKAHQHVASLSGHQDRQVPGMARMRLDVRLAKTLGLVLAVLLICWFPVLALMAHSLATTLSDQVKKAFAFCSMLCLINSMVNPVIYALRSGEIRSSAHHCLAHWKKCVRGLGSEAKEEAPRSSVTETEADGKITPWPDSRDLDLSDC
T2 sequence (P21554 whole entry): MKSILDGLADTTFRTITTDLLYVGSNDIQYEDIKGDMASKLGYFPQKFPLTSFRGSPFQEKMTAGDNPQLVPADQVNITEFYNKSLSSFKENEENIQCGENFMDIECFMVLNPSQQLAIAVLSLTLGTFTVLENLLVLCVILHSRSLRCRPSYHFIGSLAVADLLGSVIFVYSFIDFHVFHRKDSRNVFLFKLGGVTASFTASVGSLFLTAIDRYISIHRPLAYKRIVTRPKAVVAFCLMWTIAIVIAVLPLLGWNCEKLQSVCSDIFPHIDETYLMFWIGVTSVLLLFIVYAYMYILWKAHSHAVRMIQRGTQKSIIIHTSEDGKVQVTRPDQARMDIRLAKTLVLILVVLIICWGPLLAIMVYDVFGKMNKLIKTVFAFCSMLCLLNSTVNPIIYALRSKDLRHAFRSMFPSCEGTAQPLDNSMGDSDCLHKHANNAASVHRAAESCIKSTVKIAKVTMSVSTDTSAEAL

On to `COc1ccc(C(=O)c2c(C)n(CCN3CCOCC3)c3cc(I)ccc23)cc1` [AM-630], for which, on human CB2 [1], the Ki was 31.2 nM.
For `Cc1sc2nc(SCC(=O)c3ccc4c(c3)N(C)C(=O)CO4)nc(O)c2c1-c1ccccc1` [AS-1], on human CB2 [2], the “CB2 Ki (μM, 95% CI)” value was “no activity” and the “CB2 pKi ± SEM” value is on record as “no activity”.
For `CCOC(=O)c1ccc(NC(=O)Cn2c(=O)nc(-c3ccccc3)c3cc(Cl)ccc32)cc1` [AS-2], at human CB2 [2], the “CB2 Ki (μM, 95% CI)” value is given as “no activity” and the “CB2 pKi ± SEM” value is listed as “no activity”.
With `COc1cccc(Oc2c(C)oc3c4c(ccc3c2=O)OCN(Cc2ccccn2)C4)c1` [AS-3], at human CB2 [2], the “CB2 Ki (μM, 95% CI)” value is given as “no activity” and the “CB2 pKi ± SEM” value is reported as “no activity”.
On to `Cc1nn(-c2ccccc2)c(C)c1CCc1nn2c(-c3ccccc3F)nnc2s1` [AS-4], for which, on human CB2 [2], the “CB2 Ki (μM, 95% CI)” value is recorded as “no activity” and the “CB2 pKi ± SEM” value is “no activity”.
With `Cc1ccccc1-c1cc(C(=O)N2CCN(Cc3ccc4c(c3)OCO4)CC2)c2ccccc2n1` [AS-5], the Ki at human CB2 [2] (setting [4]) is 0.209 µM. On human CB1 receptors, the “CB1 Ki (μM, 95% CI)” value is “no activity” and the “CB1 pKi ± SEM” value was “no activity”. The CB2 intrinsic activity entry on human CB2 [3] is given as “CB2 antagonists”.
Take `Cc1cc(CSc2nnc(-c3nn(Cc4ccccc4)c(=O)c4ccccc34)o2)no1` [AS-6]: at human CB2 [2], the “CB2 Ki (μM, 95% CI)” value is reported as “no activity” and the “CB2 pKi ± SEM” value is listed as “no activity”.
`COc1ccc(C(=O)/C=C(\C(=O)c2ccccc2)c2ccccc2)cc1CN1CCOCC1` [AS-7]: the “selectivity index for CB2 (Ki-CB1/Ki-CB2)” value at human CB2 [2] is greater than 40. Also, the Ki on human CB2 [2] (CB2 Ki (μM, 95% CI)) is 0.065 µM; at human CB2 [2] (CB2 pKi ± SEM), 0.0661 µM; at human CB1 receptors, 2670 nM. On human CB1 receptors, the “CB1 pKi ± SEM” value was 5.57 ± 0.9. Further, on human CB2 [3], the CB2 intrinsic activity result is listed as “CB2 antagonists”.
Turning to `C[C@H](Sc1nnc2c3ccccc3nc(-c3ccccc3)n12)C(=O)NC[C@@H]1CCCO1` [AS-8], the Ki on human CB2 [2] (read-out: CB2 Ki (μM, 95% CI)) worked out at 6.37 µM. Further, on human CB1 receptors, the “CB1 Ki (μM, 95% CI)” value is “no activity” and the “CB1 pKi ± SEM” value is recorded as “no activity”.
Regarding `COc1cccc(-c2nn(Cn3nc([N+](=O)[O-])cc3C)c(-c3cccc(OC)c3)c2Cl)c1` [AS-9], at human CB2 [2] (setting [4]), the Ki was 2.09 µM. On human CB1 receptors, the “CB1 Ki (μM, 95% CI)” value is “no activity” and the “CB1 pKi ± SEM” value is “no activity”.
With `Cc1nn(Cc2ccccc2)c(Cl)c1C(=O)NCc1ccccc1Cn1ccnc1` [AS-10], the Ki at human CB2 [2] (read-out: CB2 Ki (μM, 95% CI)) was 17.9 µM; on human CB2 [2] (setting [4]) it was 18.2 µM.
On to `O=C(NCc1cccs1)c1cccc(Nc2nn3c(=O)c4ccccc4nc3s2)c1` [AS-11], for which, on human CB2 [2], the “CB2 Ki (μM, 95% CI)” value is “no activity” and the “CB2 pKi ± SEM” value was “no activity”.
Regarding `Cc1cc(C(=O)Nc2cccc(C)c2C)c2c(C)nn(Cc3ccccc3)c2n1` [AS-12], at human CB2 [2], the “CB2 Ki (μM, 95% CI)” value was “no activity” and the “CB2 pKi ± SEM” value is “no activity”.
As for `Cc1nn(-c2ccccc2)c(C)c1C(=O)C(=O)Nc1cc(F)ccc1NC(=O)c1ccccn1` [AS-13], at human CB2 [2], the “CB2 Ki (μM, 95% CI)” value is listed as “no activity” and the “CB2 pKi ± SEM” value is recorded as “no activity”.
Regarding `COCc1cc2nn(CC(=O)NCc3ccccc3Cl)c(=O)n2c(-c2ccccc2)n1` [AS-14], at human CB2 [2], the “CB2 Ki (μM, 95% CI)” value is “no activity” and the “CB2 pKi ± SEM” value is on record as “no activity”.
For the compound `CN(Cc1ccccn1)C(=O)c1c2ccccc2c2n1CCCN(Cc1ccccc1)C2=O` [AS-15], at human CB2 [2], the “CB2 Ki (μM, 95% CI)” value is recorded as “no activity” and the “CB2 pKi ± SEM” value is “no activity”.
As for `Cc1cc(C)n(C[C@@H](O)c2ccc(-n3c4c(c5ccccc5c3=O)C(=O)c3ccccc3-4)cc2)n1` [AS-16], on human CB2 [2], the “CB2 Ki (μM, 95% CI)” value is given as “no activity” and the “CB2 pKi ± SEM” value is “no activity”.
For `N#Cc1c(Oc2cccc(OS(=O)(=O)CCCC(F)(F)F)c2)cccc1C(F)(F)F` [BAY 59-3074], on human CB2 [1], the Ki was 45.5 nM.
With `CCCCCc1cc(O)c(C/C=C(\C)CCC=C(C)C)c(O)c1` [Cannabigerol], the Ki on human CB2 [1] was 2920 nM.
Turning to `CCCC(C)(C)c1ccc2c(c1)OC(C)(C)[C@@H]1CC=C(C)C[C@@H]21` [JWH-133], the Ki on human CB2 [1] is 3.4 nM.
